Values of other authors, collected in patent publication US5900414A, “Methods for administering integrin receptor antagonists” (Merck & Co., Inc., priority 1997, dated 1999).
Positions of bridges follow the written chain, without caps; N, C: chain ends. Non-standard residues stand in square brackets, D forms with d. Residues, ends and D or L forms follow the SMILES beside them. hArg = N=C(N)NCCCC[C@H](N)C(=O)O; Mpa = O=C(O)CCS

Legend:
[1] = prodrug

For `N=C(N)NCCCC[C@@H]1NC(=O)CCSSC[C@@H](C(N)=O)NC(=O)[C@@H]2CCCN2C(=O)[C@H](Cc2c[nH]c3ccccc23)NC(=O)[C@H](CC(=O)O)NC(=O)CNC1=O` [Integrilin] ([Mpa][hArg]GDWPC-NH2; disulfide 1-7), the “ligand binding to GPIIa/IIIa” value (GPIIa/IIIa) is given as “inhibits ligand binding” and the “effect on ligand binding to αv β3” value (αv β3) is given as “very little effect”.
In the case of `CCCCS(=O)(=O)N[C@@H](Cc1ccc(OCCCCC2CCNCC2)cc1)C(=O)O` [MK-383], the “selectivity for GPIIb/IIIa” value (GPIIb/IIIa) is listed as “selective for GPIIb/IIIa”.
For `N=C(N)c1ccc(C(=O)N[C@@H](Cc2ccc(O)cc2)C(=O)N2CCC(OCC(=O)O)CC2)cc1` [Ro 44-9883], the “selectivity for GPIIb/IIIa” value (GPIIb/IIIa) is listed as “selective for GPIIb/IIIa”.
In the case of `C#C[C@H](CC(=O)OCC)NC(=O)CCC(=O)Nc1ccc(C(=N)N)cc1` [SC54684], the oral bioavailability [1] is given as “high oral bioavailability”.
